Values quoted from earlier work as cited in patent publication US20240165186A1, “Synergistically Formulated Compound for Mitochondria Supplementation and Enhancement” (priority 2022, published 2024).

Conditions: relative to vitamin C; no test described

In the case of `O=C(O)c1cc(C(=O)O)c2c(n1)C(=O)C(=O)c1cc(C(=O)O)[nH]c1-2` [PQQ, Pyrroloquinoline Quinone], the “times more effective than vitamin C as an antioxidant” value is given as ≤ 1000 times.
